Test results as given in US20250098679A1, “HERBICIDAL PYRIDONE DERIVATIVES” (SYNGENTA CROP PROTECTION AG, priority 2021, published 2025).

What was measured:
Type in all cases: in vivo
Conditions in all cases: evaluated after 13 days
Setaria faberi (SETFA) [1] = assay: Pre-emergence Test, Setaria faberi (SETFA)
[2] = system: Echinochloa crus-galli (ECHCG); assay: Pre-emergence Test, Echinochloa crus-galli (ECHCG)
Zea mays (ZEAMX) [3] = assay: Pre-emergence Test, Zea mays (ZEAMX)
[4] = system: Ipomoea hederacea (IPOHE); assay: Pre-emergence Test, Ipomoea hederacea (IPOHE)
[5] = system: Amaranthus palmeri (AMAPA); assay: Pre-emergence Test, Amaranthus palmeri (AMAPA)
[6] = system: Amaranthus retoflexus (AMARE); assay: Pre-emergence Test, Amaranthus retoflexus (AMARE)
Setaria faberi (SETFA) [7] = assay: Post-emergence Test, Setaria faberi (SETFA); design: key to percentage damage caused to the plant, SETFA (five-point scale): 5=81-100%, 4=61-80%, 3=41-60%, 2=21-40%, 1=0-20% damage
Summary of the method: (§1)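 Application was a spray of acetone/water (50:50) with 0.5% Tween 20 onto pots of test species sown in standard soil. Unless otherwise stated, the rate was 1000 g/ha. After 13 days under glasshouse conditions (24/16 °C, 65% humidity), injury was scored from 1 (0-20%) to 5 (81-100%).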

[8] = system: Echinochloa crus-galli (ECHCG); assay: Post-emergence Test, Echinochloa crus-galli (ECHCG); design: key to percentage damage caused to the plant, ECHCG (five-point scale): 5=81-100%, 4=61-80%, 3=41-60%, 2=21-40%, 1=0-20% damage
Summary of the method: as §1

Zea mays (ZEAMX) [9] = assay: Post-emergence Test, Zea mays (ZEAMX); design: key to percentage damage caused to the plant, ZEAMX (five-point scale): 5=81-100%, 4=61-80%, 3=41-60%, 2=21-40%, 1=0-20% damage
Summary of the method: as §1

[10] = system: Ipomoea hederacea (IPOHE); assay: Post-emergence Test, Ipomoea hederacea (IPOHE); design: key to percentage damage caused to the plant, IPOHE (five-point scale): 5=81-100%, 4=61-80%, 3=41-60%, 2=21-40%, 1=0-20% damage
Summary of the method: as §1

[11] = system: Amaranthus palmeri (AMAPA); assay: Post-emergence Test, Amaranthus palmeri (AMAPA); design: key: 5=81-100%, 4=61-80%, 3=41-60%, 2=21-40%, 1=0-20% damage
Summary of the method: as §1

[12] = system: Amaranthus retoflexus (AMARE); assay: Post-emergence Test, Amaranthus retoflexus (AMARE); design: key to percentage damage caused to the plant, AMARE (five-point scale): 5=81-100%, 4=61-80%, 3=41-60%, 2=21-40%, 1=0-20% damage
Summary of the method: as §1

Row | Compound | Pre-emergence Test SETFA, percentage damage caused to the plant (five-point scale) (Setaria faberi (SETFA) [1]; 250 g/Ha (*)) | Pre-emergence Test SETFA, percentage damage caused to the plant (five-point scale) (Setaria faberi (SETFA) [1]; 1000 g/ha) | Pre-emergence Test ECHCG, percentage damage caused to the plant (five-point scale) ([2]; 250 g/Ha (*)) | Pre-emergence Test ECHCG, percentage damage caused to the plant (five-point scale) ([2]; 1000 g/ha) | Pre-emergence Test ZEAMX, percentage damage caused to the plant (five-point scale) (Zea mays (ZEAMX) [3]; 250 g/Ha (*)) | Pre-emergence Test ZEAMX, percentage damage caused to the plant (five-point scale) (Zea mays (ZEAMX) [3]; 1000 g/ha) | Pre-emergence Test IPOHE, percentage damage caused to the plant (five-point scale) ([4]; 250 g/Ha (*)) | Pre-emergence Test IPOHE, percentage damage caused to the plant (five-point scale) ([4]; 1000 g/ha) | Pre-emergence Test AMAPA, percentage damage caused to the plant (five-point scale) ([5]; 250 g/Ha (*)) | Pre-emergence Test AMAPA, percentage damage caused to the plant (five-point scale) ([5]; 1000 g/ha) | Pre-emergence Test AMARE, percentage damage caused to the plant (five-point scale) ([6]; 250 g/Ha (*)) | Pre-emergence Test AMARE, percentage damage caused to the plant (five-point scale) ([6]; 1000 g/ha) | percentage damage caused to the plant, SETFA (five-point scale) (Setaria faberi (SETFA) [7]; 250 g/Ha) | percentage damage caused to the plant, SETFA (five-point scale) (Setaria faberi (SETFA) [7]; 1000 g/ha) | percentage damage caused to the plant, ECHCG (five-point scale) ([8]; 250 g/Ha) | percentage damage caused to the plant, ECHCG (five-point scale) ([8]; 1000 g/ha) | percentage damage caused to the plant, ZEAMX (five-point scale) (Zea mays (ZEAMX) [9]; 1000 g/ha) | percentage damage caused to the plant, IPOHE (five-point scale) ([10]; 1000 g/ha) | percentage damage caused to the plant, AMAPA (five-point scale) ([11]; 1000 g/ha) | percentage damage caused to the plant, AMARE (five-point scale) ([12]; 1000 g/ha) | also measured
1 | CCn1c(Cn2cncc2C(F)(F)F)cc(=O)c(C(=O)O)c1-c1ccc(Cl)c(Cl)c1 [Compound 16, 2-(3,4-dichlorophenyl)-1-ethyl-4-oxo-6-[[5-(trifluoromethyl)imidazol-1-yl]methyl]pyridine-3-carboxylic acid] | 0 | 1 (1=0-20%) | 1 (1=0-20%) | 4 (4=61-80%) | 0 | 0 | 0 | 0 | 3 (3=41-60%) | 5 (5=81-100%) | 1 (1=0-20%) | 4 (4=61-80%) | 2 (2=21-40%) | 5 (5=81-100%) | 2 (2=21-40%) | 4 (4=61-80%) | 4 (4=61-80%) | 5 (5=81-100%) | 5 (5=81-100%) | 1 (1=0-20%) | percentage damage caused to the plant, ZEAMX (five-point scale) (Zea mays (ZEAMX) [9]; 250 g/Ha): 0; percentage damage caused to the plant, IPOHE (five-point scale) ([10]; 250 g/Ha): 2 (2=21-40%); percentage damage caused to the plant, AMAPA (five-point scale) ([11]; 250 g/Ha): 4 (4=61-80%); percentage damage caused to the plant, AMARE (five-point scale) ([12]; 250 g/Ha): 4 (4=61-80%)
2 | CCn1c(Cn2ccnn2)cc(=O)c(C(=O)O)c1-c1ccc(Cl)c(Cl)c1 [Compound 45, 2-(3,4-dichlorophenyl)-1-ethyl-4-oxo-6-(triazol-1-ylmethyl)pyridine-3-carboxylic acid] |  | 1 (1=0-20%) |  | 4 (4=61-80%) |  | 0 |  | 0 |  | 1 (1=0-20%) |  | 0 |  | 1 (1=0-20%) |  | 1 (1=0-20%) | 0 | 0 | 1 (1=0-20%) | 0 | 
3 | CCn1c(Cn2nc(C(F)(F)F)cc2Cl)cc(=O)c(C(=O)O)c1-c1ccc(Cl)c(Cl)c1 [Compound 169, 6-[[5-chloro-3-(trifluoromethyl)pyrazol-1-yl]methyl]-2-(3,4-dichlorophenyl)-1-ethyl-4-oxo-pyridine-3-carboxylic acid] | 5 (5=81-100%) |  | 4 (4=61-80%) |  | 0 |  | 1 (1=0-20%) |  | 1 (1=0-20%) |  | 1 (1=0-20%) |  | 4 (4=61-80%) |  | 3 (3=41-60%) |  |  |  |  |  | percentage damage caused to the plant, ZEAMX (five-point scale) (Zea mays (ZEAMX) [9]; 250 g/Ha): 4 (4=61-80%); percentage damage caused to the plant, IPOHE (five-point scale) ([10]; 250 g/Ha): 4 (4=61-80%); percentage damage caused to the plant, AMAPA (five-point scale) ([11]; 250 g/Ha): 3 (3=41-60%); percentage damage caused to the plant, AMARE (five-point scale) ([12]; 250 g/Ha): 3 (3=41-60%)
4 | CCOC(=O)c1c(-c2ccc(Cl)c(Cl)c2)n(CC)c(Cn2cc(F)cn2)cc1=O [Compound 8, ethyl 2-(3,4-dichlorophenyl)-1-ethyl-6-[(4-fluoropyrazol-1-yl)methyl]-4-oxo-pyridine-3-carboxylate] |  | 1 (1=0-20%) |  | 3 (3=41-60%) |  | 0 |  | 1 (1=0-20%) |  | 0 |  | 0 |  | 4 (4=61-80%) |  | 1 (1=0-20%) | 1 (1=0-20%) | 1 (1=0-20%) | 1 (1=0-20%) | 1 (1=0-20%) | 
5 | CCn1c(Cn2nc(C)cc2O)cc(=O)c(C(=O)O)c1-c1ccc(Cl)c(Cl)c1 [Compound 146, 2-(3,4-dichlorophenyl)-1-ethyl-6-[(5-hydroxy-3-methyl-pyrazol-1-yl)methy]-4-oxo-pyridine-3-carboxylic acid] |  | 1 (1=0-20%) |  | 1 (1=0-20%) |  | 0 |  | 0 |  | 0 |  | 0 |  | 1 (1=0-20%) |  | 0 | 0 | 0 | 0 | 0 | 
6 | CCn1c(Cn2nc(C(F)(F)F)cc2O)cc(=O)c(C(=O)O)c1-c1ccc(Cl)c(Cl)c1 [Compound 147, 2-(3,4-dichlorophenyl)-1-ethyl-6-[[5-hydroxy-3-(trifluoromethyl)pyrazol-1-yl]methyl]-4-oxo-pyridine-3-carboxylic acid] |  | 1 (1=0-20%) |  | 0 |  | 0 |  | 0 |  | 1 (1=0-20%) |  | 0 |  | 0 |  | 0 | 0 | 1 (1=0-20%) | 0 | 1 (1=0-20%) | 
